Experimental data: patent US10213415B2, “Compounds as opioid receptor modulators” (JANSSEN PHARMACEUTICA NV, priority 2004, dated 2019)

Key:
[1] = molecular target: T1, delta opioid receptor (NG108-15 cell membranes) (Mus musculus, UniProt P32300); assay: Delta Opioid Receptor Functional Assay: [35S]GTPγS Binding in NG108-15 Cell Membranes, Version 2; type: biochemical; conditions: NG108-15 cell membranes, version 2; for EC50: [35S]GTPγS, read-out: DOR GTP-binding Assay_v2_ EC50; for DOR GTP-binding Assay v2 (% I): % inhibition of agonist-stimulated GTPγS binding
T1 construct: NG108-15 cell membranes were purchased from Applied Cell Sciences (Rockville, Md.); host or cells: NG108-15 cells (membranes purchased)
Experimental: NG108-15 cell membranes were purchased from Applied Cell Sciences (Rockville, Md.). 8 mg/ml of membrane protein suspended in 10 mM TRIS-HC pH 7.2, 2 mM EDTA, 10% sucrose.
Membranes were maintained at 4-8° C. A portion (1 ml) of membranes was added into 10 ml cold binding assay buffer. The assay buffer contained 50 mM Tris, pH 7.6, 5 mM MgCl2, 100 mM NaCl, 1 mM DTT and 1 mM EGTA. The membrane suspension was homogenized with a Polytron for 2 times and centrifuged at 3000 rpm for 10 min. The supernent was then centrifuged at 18,000 rpm for 20 min. The pellet was saved in a tube and 10 ml assay buffer was added into the tube. The pellet and buffer were mixed with a Polytron.
The pellet membranes (75 μg/ml) were preincubated with SPA (10 mg/ml) at 25° C. for 45 min in the assay buffer. The SPA (5 mg/ml) coupled with membranes (37.5 μg/ml) was then incubated with 0.1 nM [^35S] GTPγS in the same Tris buffer containing 100 μM GDP in total volume of 200 μl. Increasing concentrations of receptor agonists were used to stimulate [^35S] GTPγS binding. The basal binding was tested in the absent agonists and no specific binding was tested in the present 10 μM unlabeled GTPγS. The data were analyzed on a Top counter.
[formula] % Inhibition=(% stimulation by 1 μM SNC80−% stimulation by 1 μM SNC80 in presence of test compound)×100/(% Stimulation by 1 μM SNC80−100) % of Basal=(stimulate−non specific)*100/(basal−non specific). EC50 values were calculated using GraphPad Prism.

mu opioid receptor = molecular target: T2, mu opioid receptor (Rattus norvegicus, UniProt P33535); assay: Rat Brain Mu Opioid Receptor Binding Assay (and Version 2a, [3H]DAMGO); conditions: rat forebrain membranes, margin of error 10-20%, read-out: r Ki μ
T2 construct: from tissue; host or cells: forebrain of male Wistar rats
Experimental: Male, Wistar rats (150-250 g, VAF, Charles River, Kingston, N.Y.) are killed by cervical dislocation, and their brains removed and placed immediately in ice cold Tris HCl buffer (50 mM, pH 7.4). The forebrains are separated from the remainder of the brain by a coronal transection, beginning dorsally at the colliculi and passing ventrally through the midbrain-pontine junction. After dissection, the forebrains are homogenized in Tris buffer in a Teflon® glass homogenizer. The homogenate is diluted to a concentration of 1 g of forebrain tissue per 80 mL Tris and centrifuged at 39,000×g for 10 min. The pellet is resuspended in the same volume of Tris buffer containing 5 mM MgCl2 with several brief pulses from a Polytron homogenizer. This particulate preparation is used for the mu-opioid binding assays. […] The filters are rinsed three times with 2 mL of 10 mM HEPES (pH7.4), and dried in a microwave oven 2 min twice. To each sample area 2×50 μL of Betaplate Scint scintillation fluid (LKB) is added and analyzed on a LKB (Wallac) 1205 BetaPlate liquid scintillation counter.
(§1) The data are used to calculate either the % inhibition compared to control binding (when only a single concentration of test compound is evaluated) or a Ki value (when a range of concentrations is tested). % inhibition is calculated as: [(total dpm-test compound dpm)/(total dpm-nonspecific dpm)]*100. Kd and Ki values were calculated using GraphPad PRISM data analysis program.
Male, Wistar rats (150-250 g, VAF, Charles River, Kingston, N.Y.) were killed by cervical dislocation, and their brains removed and placed immediately in ice-cold Tris HCl buffer (50 mM, pH 7.4). The forebrains were separated from the remainder of the brain by a coronal transection, beginning dorsally at the colliculi and passing ventrally through the midbrain-pontine junction. After dissection, the forebrains were homogenized in Tris buffer in a Teflon®-glass homogenizer. The homogenate was diluted to a concentration of 1 g of forebrain tissue per 80 mL Tris and centrifuged at 39,000×g for 10 min. The pellet was resuspended in the same volume of Tris buffer containing 5 mM MgCl2 with several brief pulses from a Polytron homogenizer. This particulate preparation was used for the mu opioid binding assay. Following incubation with 0.8 nM of the mu selective ligand [^3H]DAMGO at 25° C. for 2.5 h in a 96-well plate with total 1 mL, the plate contents were filtered through Wallac filtermat B sheets on a Tomtec 96-well harvester. The filters were rinsed three times with 2 mL of 10 mM HEPES (pH 7.4), and dried in a microwave oven. To each sample area, Betaplate Scint scintillation fluid (LKB) was added and the resulting radioactivity quantified on a LKB (Wallac) 1205 BetaPlate liquid scintillation counter. Kd and Ki values were calculated using the GraphPad PRISM data analysis program.

delta opioid receptor = molecular target: T3, delta opioid receptor (Rattus norvegicus, UniProt P33533); assay: Rat Brain Delta Opioid Receptor Binding Assay ([3H]DPDPE); conditions: rat forebrain membranes, margin of error 10-20%, read-out: r Ki δ
T3 construct: from tissue; host or cells: forebrain of male Wistar rats
Experimental: Male, Wistar rats (150-250 g, VAF, Charles River, Kingston, N.Y.) are killed by cervical dislocation, and their brains removed and placed immediately in ice cold Tris HCl buffer (50 mM, pH 7.4). The forebrains are separated from the remainder of the brain by a coronal transection, beginning dorsally at the colliculi and passing ventrally through the midbrain-pontine junction. After dissection, the forebrains are homogenized in Tris buffer in a Teflon® glass homogenizer. The homogenate is diluted to a concentration of 1 g of forebrain tissue per 80 mL Tris and centrifuged at 39,000×g for 10 min. The pellet is resuspended in the same volume of Tris buffer containing 5 mM MgCl2 with several brief pulses from a Polytron homogenizer. This particulate preparation is used for the delta opioid binding assays. Following incubation with the delta selective peptide ligand ˜4 nM [^3H]DPDPE at 25° C. for 2.5 h in a 96-well plate with total volume of 1 mL, the plate contents are filtered through Wallac filtermat B sheets on a Tomtec 96-well harvester. The filters are rinsed three times with 2 mL of 10 mM HEPES (pH 7.4), and dried in a microwave oven 2 min twice. To each sample area 2×50 μL of Betaplate Scint scintillation fluid (LKB) is added and analyzed on a LKB (Wallac) 1205 BetaPlate liquid scintillation counter.
as §1, with “dpm−test” for “dpm-test”, “dpm−nonspecific” for “dpm-nonspecific”

[2] = molecular target: T4, mu opioid receptor (CHO-hMOR cell membranes) (Homo sapiens, UniProt P35372); assay: Mu Opioid Receptor Functional Assay: [35S]GTPγS Binding in CHO-hMOR Cell Membranes, Versions 1 and 2; type: biochemical; conditions: for MOR GTP binding assay_v2 (% I): version 2, % inhibition of agonist-stimulated GTPγS binding; for EC50: version 2, read-out: MOR GTP binding assay v2 EC50
T4 construct: purchased Receptor Biology, Inc. (Baltimore, Md.); host or cells: CHO cells (recombinant expression)
In short: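 CHO-hMOR membranes (10 μg/ml) on WGA SPA beads, preincubated 45 min at 25 °C, then incubated with 0.5 nM [35S]GTPγS in HEPES pH 7.6, 5 mM MgCl2, 100 mM NaCl, 1 mM DTT, 1 mM EDTA. Non-specific binding with 10 μM unlabeled GTPγS; agonist EC50 from concentration-response, antagonism as inhibition of 1 μM SNC80-stimulated binding.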

human mu opioid receptor = molecular target: T5, human mu opioid receptor (Homo sapiens, UniProt P35372); assay: Human Mu Opioid Receptor Binding Assay (CHO membranes, 3H-Damgo); conditions: read-out: hKi μ
T5 construct: purchased Perkin Elmer RBHOMM400UA; host or cells: Chinese Hamster Ovary cells (recombinant expression)
In short: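 Membranes from CHO cells expressing human mu opioid receptor, 300 μg/mL, in 50 mM Tris pH 7.5, 5 mM MgCl2. Incubated with compound and ³H-Damgo (3.6 nM before mixing) for 2 h at room temperature, filtered, counted by scintillation. Nonspecific binding with 1 μM unlabelled Damgo.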

[3] = molecular target: T6, human delta subtype 2 opioid receptor (Homo sapiens, UniProt P41143); assay: Human Delta Opioid Receptor Binding Assay (CHO membranes, 3H-Naltrindole); conditions: read-out: hKi δ
T6 construct: purchased Perkin Elmer RBHODM400UA; host or cells: Chinese Hamster Ovary cells (recombinant expression)
In short: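 Filtration binding on CHO-cell membranes expressing the human receptor, in 50 mM Tris pH 7.5 with 5 mM MgCl2, 30 min at room temperature; 3H-naltrindole diluted to 6 nM before mixing 1:1 with compound. Nonspecific binding defined with 1 μM unlabelled naltrindole; inhibition relative to no-inhibitor wells.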

T3 sequence (P33533 whole entry): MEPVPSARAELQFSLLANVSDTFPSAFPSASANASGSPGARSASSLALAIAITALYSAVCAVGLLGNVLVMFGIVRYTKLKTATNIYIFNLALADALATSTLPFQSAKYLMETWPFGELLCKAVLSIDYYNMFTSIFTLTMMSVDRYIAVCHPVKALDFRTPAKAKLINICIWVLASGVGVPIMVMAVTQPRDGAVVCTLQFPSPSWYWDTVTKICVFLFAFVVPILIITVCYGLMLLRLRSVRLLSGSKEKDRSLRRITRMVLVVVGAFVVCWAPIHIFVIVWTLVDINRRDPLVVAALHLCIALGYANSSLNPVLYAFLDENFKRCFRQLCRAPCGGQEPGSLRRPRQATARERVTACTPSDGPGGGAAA
T1 sequence (P32300 whole entry): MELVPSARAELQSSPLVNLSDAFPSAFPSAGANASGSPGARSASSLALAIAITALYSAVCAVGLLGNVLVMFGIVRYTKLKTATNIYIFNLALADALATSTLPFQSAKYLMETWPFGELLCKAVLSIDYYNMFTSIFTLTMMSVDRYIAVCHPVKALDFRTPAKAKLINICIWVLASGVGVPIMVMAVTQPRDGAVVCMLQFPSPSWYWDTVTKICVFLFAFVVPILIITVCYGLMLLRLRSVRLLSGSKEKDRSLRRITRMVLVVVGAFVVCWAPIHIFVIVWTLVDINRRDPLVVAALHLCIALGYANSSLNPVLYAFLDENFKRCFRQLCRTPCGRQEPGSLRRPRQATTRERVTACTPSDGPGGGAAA
T5 sequence (P35372 whole entry): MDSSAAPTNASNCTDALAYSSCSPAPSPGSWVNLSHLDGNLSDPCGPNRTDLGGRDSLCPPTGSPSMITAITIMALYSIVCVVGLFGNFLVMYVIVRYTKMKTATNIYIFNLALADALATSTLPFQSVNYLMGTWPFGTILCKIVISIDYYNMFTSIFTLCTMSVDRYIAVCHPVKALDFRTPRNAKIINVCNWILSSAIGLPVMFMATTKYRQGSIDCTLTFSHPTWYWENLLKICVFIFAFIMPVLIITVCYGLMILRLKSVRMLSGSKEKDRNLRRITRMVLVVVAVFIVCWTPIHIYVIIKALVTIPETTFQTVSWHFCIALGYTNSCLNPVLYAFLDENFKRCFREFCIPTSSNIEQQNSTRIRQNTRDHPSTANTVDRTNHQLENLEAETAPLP
T4 sequence (P35372 whole entry): as above
T2 sequence (P33535 whole entry): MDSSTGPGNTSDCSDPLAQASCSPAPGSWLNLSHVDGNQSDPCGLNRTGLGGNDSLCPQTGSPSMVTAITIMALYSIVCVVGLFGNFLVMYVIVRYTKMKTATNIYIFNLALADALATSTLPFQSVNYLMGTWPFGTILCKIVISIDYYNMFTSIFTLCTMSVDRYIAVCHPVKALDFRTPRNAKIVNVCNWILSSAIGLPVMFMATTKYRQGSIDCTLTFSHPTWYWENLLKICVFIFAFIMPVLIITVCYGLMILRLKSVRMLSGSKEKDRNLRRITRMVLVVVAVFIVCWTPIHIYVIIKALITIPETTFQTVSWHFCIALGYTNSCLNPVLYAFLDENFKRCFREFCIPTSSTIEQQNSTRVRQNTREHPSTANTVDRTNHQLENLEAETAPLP
T6 sequence (P41143 whole entry): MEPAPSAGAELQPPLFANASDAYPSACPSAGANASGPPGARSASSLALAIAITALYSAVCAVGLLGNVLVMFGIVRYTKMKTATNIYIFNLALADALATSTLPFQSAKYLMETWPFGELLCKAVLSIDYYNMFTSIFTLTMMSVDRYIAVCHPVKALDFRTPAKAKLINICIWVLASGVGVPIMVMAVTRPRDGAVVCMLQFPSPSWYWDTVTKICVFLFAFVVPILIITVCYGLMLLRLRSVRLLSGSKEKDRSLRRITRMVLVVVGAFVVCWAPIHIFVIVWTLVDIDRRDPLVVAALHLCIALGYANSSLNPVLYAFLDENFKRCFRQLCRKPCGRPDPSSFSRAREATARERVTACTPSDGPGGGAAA

Row | SMILES | EC50 [1] [nM] | DOR GTP-binding Assay v2 (% I) [1] [%] | Ki (mu opioid receptor) [nM] | Ki (delta opioid receptor) [nM] | MOR GTP binding assay_v2 (% I) [2] [%] | EC50 [2] [nM] | Ki (human mu opioid receptor) [nM] | Ki [3] [nM]
1 | Cc1cc(O)cc(C)c1C[C@H](N)C(=O)N(Cc1ccc(OC(F)(F)F)cc1)[C@@H](C)c1nc(-c2ccccc2)c[nH]1 [Cpd 248] | 15 | 31.72 | 0.11 | 0.44 | – | – | – | –
2 | COC(=O)c1ccc(CN(C(=O)[C@@H](N)Cc2c(C)cc(C(N)=O)cc2C)[C@@H](C)c2nc(-c3ccccc3)c[nH]2)cn1 [Cpd 255] | 13.1 | 54.00 | – | – | 33.00 | 3.48 | – | –
3 | COc1cc(CN(C(=O)[C@@H](N)Cc2c(C)cc(C(N)=O)cc2C)[C@@H](C)c2nc(-c3ccccc3)c[nH]2)c(C(=O)O)cc1OC [Cpd 230] | 48.9 | – | 5 | 10 | – | – | – | –
4 | Cc1cc(O)cc(C)c1C[C@H](N)C(=O)N(Cc1ccc(OC(C)C)cc1)[C@@H](C)c1nc(-c2ccccc2)c[nH]1 [Cpd 250] | 10 | 34.93 | 0.06 | 0.21 | – | – | – | –
5 | COc1ccc(CN(C(=O)[C@@H](N)Cc2c(C)cc(C(N)=O)cc2C)[C@@H](C)c2nc(-c3cccc(C(=O)O)c3)c[nH]2)cc1OC [Cpd 20] | > 10000 | 78.74 | – | – | – | – | 63 | –
6 | COc1ccc(CN(C(=O)[C@@H](N)Cc2c(C)cc(O)cc2C)[C@@H](C)c2nc(-c3ccccc3)c[nH]2)c2ccccc12 [Cpd 247] | 44 | 41.89 | 0.61 | 0.4 | – | – | – | –
7 | COC(=O)c1cccc(CN(C(=O)[C@@H](N)Cc2c(C)cc(C(N)=O)cc2C)[C@@H](C)c2nc(-c3ccccc3)c[nH]2)n1 [Cpd 313] | 5.03 | 49 | – | – | 29.00 | 50.6 | – | –
8 | COc1ccc(CN(C(=O)[C@@H](N)Cc2c(C)cc(C(N)=O)cc2C)[C@@H](C)c2nc(-c3cccc(Br)c3)c[nH]2)cc1C(=O)O [Cpd 288] | > 10000 | 74.54 | 0.43 | 0.17 | – | – | – | –
9 | COC(=O)c1ccc(CN(C(=O)[C@@H](N)Cc2c(C)cc(C(N)=O)cc2C)[C@@H](C)c2nc(-c3ccccc3)c[nH]2)nc1 [Cpd 252] | 32.1 | 66.00 | – | – | 24.00 | 4.15 | – | –
10 | Cc1cc(C(N)=O)cc(C)c1C[C@H](N)C(=O)N(Cc1ccc(C(=O)O)nc1)[C@@H](C)c1nc(-c2ccccc2)c[nH]1 [Cpd 254] | 6.27 | 62.00 | – | – | 42.00 | 316 | – | –
11 | COc1ccc(CN(C(=O)[C@@H](N)Cc2c(C)cc(C(N)=O)cc2C)[C@@H](C)c2nc(-c3ccc(Cl)cc3)c(C)[nH]2)cc1C(=O)O [Cpd 239] | > 10000 | – | 0.44 | 0.1 | – | – | – | –
12 | COc1ccc(CN(C(=O)[C@@H](N)Cc2c(C)cc(C(N)=O)cc2C)[C@@H](C)c2nc(-c3ccccc3Br)c[nH]2)cc1C(=O)O [Cpd 290] | > 10000 | 52.41 | 0.43 | 0.69 | – | – | – | –
13 | COC(=O)c1ccc(CN(C(=O)[C@@H](N)Cc2c(C)cc(C(N)=O)cc2C)[C@@H](C)c2nc(-c3ccccc3)c[nH]2)cc1 [Cpd 51] | 27 | 66.04 | – | – | – | – | 2.7 | 113
14 | Cc1cc(C(N)=O)cc(C)c1C[C@H](N)C(=O)N(Cc1ccc(C(=O)O)cn1)[C@@H](C)c1nc(-c2ccccc2)c[nH]1 [Cpd 253] | 1.35 | 52.00 | – | – | 28.00 | 251 | – | –
15 | COc1cc(CN(C(=O)[C@@H](N)Cc2c(C)cc(C(N)=O)cc2C)[C@@H](C)c2nc(-c3ccccc3)c[nH]2)ccc1C(=O)O [Cpd 14] | 0.6 | 59.70 | – | 0.36 | – | – | 4.7 | –
16 | COC(=O)c1cc(CN(C(=O)[C@@H](N)Cc2c(C)cc(C(N)=O)cc2C)[C@@H](C)c2nc(-c3ccccc3)c[nH]2)ccn1 [Cpd 311] | 1.02 | 41.00 | – | – | – | – | – | –
17 | Cc1cc(C(N)=O)cc(C)c1C[C@H](N)C(=O)N(Cc1ccccc1C(=O)O)[C@@H](C)c1nc(-c2ccccc2)c[nH]1 [Cpd 226] | > 10000 | 19.71 | – | 48 | – | – | 7.91 | –
